# Measurements: paper PMC12782889, “A GmNRF5a–GmCERK1–GmCAK1 module mediates chitin/chitosan‐triggered immune response in soybean” (Journal of Integrative Plant Biology, 2025)
# What was measured:
# AtCERK1^ECD = target: T1, AtCERK1^ECD (Arabidopsis thaliana, UniProt A8R7E6); test: Microscale thermophoresis (MST) binding to AtCERK1^ECD (positive control); conditions: ligand dp6, protein purified from Pichia pastoris, read-out: dissociation constant (K D) with AtCERK1^ECD
# T1 construct: ectodomain of AtCERK1 (aa25–224); made in house; host or cells: Pichia pastoris X-33
# T1 sequence (A8R7E6 25-224): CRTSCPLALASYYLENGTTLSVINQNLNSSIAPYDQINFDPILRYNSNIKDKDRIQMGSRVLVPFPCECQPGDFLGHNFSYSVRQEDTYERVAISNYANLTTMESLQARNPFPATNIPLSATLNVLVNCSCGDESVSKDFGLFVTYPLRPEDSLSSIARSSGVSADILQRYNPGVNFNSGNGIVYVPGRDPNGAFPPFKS
# GmNFR5a^ECD = GmNFR5a^ECD (Glycine max, UniProt A5YJV9); test: Microscale thermophoresis (MST) binding to GmNFR5a^ECD; design: species or system soybean (Glycine max); conditions: ligand dp6, His-tagged protein purified from Pichia pastoris, read-out: dissociation constant (K D) with GmNFR5a^ECD
# Description: The ectodomains of GmCERK1, GmNFR5a, and mutants were cloned into the yeast expression vector pPICZαA (Thermo Fisher Scientific, Shanghai, China) through the double digestion and ligation using the restriction endonuclease EcoRI/XbaI (NEB, Suzhou, China) and T4 ligase. Then, the linearized recombinant plasmid pPICZαA‐GmCERK1 and pPICZαA‐GmNFR5a were transformed into P. pastoris X‐33. The positive colonies were selected on YPDS medium (1% w/v yeast extract, 2% w/v peptone, 2% w/v glucose, 2% w/v agar, 100 μg/mL antibiotic Zeocin (Thermo Fisher Scientific)) plates and verified by direct DNA sequencing. Protein expression was carried out initially in BMGY media (100 mM potassium phosphate pH 6.0, 1.34% w/v YNB, 4 × 10^−5% w/v biotin, 1% v/v glycerol) at 28°C with shaking (180 rpm) until the OD600 reached 2.0–6.0. The cell pellet was transferred into BMMY medium (100 mM potassium phosphate pH 6.0, 1.34% w/v YNB, 4 × 10^−5% w/v biotin, 0.5% v/v methanol) and continuously supplied with the addition of 0.5% (v/v) methanol every day for 5 d. […]
# GmCERK1^ECD, GmNFR5a^ECD, and all mutants were labeled with a fluorescent dye using the Monolith Protein Labeling Kit RED‐NHS second Generation (MO‐L011). […] The data were analyzed and fitted by plotting ligand concentrations against bound fractions using the MO.Affinity Analysis v3.0.5 software. […]
# UGT76G1 = target: T2, UGT76G1 (Stevia rebaudiana, UniProt Q6VAB4); test: MST binding to UGT76G1 (negative control protein)
# T2 construct: made in house
# T2 sequence (Q6VAB4 1-458): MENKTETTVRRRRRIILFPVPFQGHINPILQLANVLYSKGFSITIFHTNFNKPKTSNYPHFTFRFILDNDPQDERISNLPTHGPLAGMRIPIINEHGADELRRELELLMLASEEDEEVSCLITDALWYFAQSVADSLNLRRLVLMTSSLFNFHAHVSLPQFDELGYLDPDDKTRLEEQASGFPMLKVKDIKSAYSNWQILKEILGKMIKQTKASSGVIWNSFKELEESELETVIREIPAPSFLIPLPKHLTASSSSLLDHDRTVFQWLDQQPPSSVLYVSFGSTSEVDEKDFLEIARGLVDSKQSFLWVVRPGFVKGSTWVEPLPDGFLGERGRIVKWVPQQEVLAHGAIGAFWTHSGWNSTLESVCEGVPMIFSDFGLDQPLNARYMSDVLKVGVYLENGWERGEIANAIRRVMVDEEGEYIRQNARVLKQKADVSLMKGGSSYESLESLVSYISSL
# GmCERK1 homodimer = test: Co-immunoprecipitation of GmCERK1-GFP with GmCERK1-HA in N. benthamiana; format: cell-based, soybean (Glycine max); conditions: Co-IP; N. benthamiana leaves treated 50 mg/L for 5 min
# Protocol: (§1) Nicotiana benthamiana leaves were harvested 48 h post inoculation (hpi) after agroinfiltration. Samples were ground in liquid nitrogen and incubated for 30 min in a lysis buffer (50 mM Tris-HCl pH 8.0, 150 mM NaCl, 1.0% (v/v) NP-40, 0.1% SDS (w/v) and 0.1% protease inhibitor cocktail ([…]; Sigma, St. Louis, MI, USA)). Supernatant was collected by centrifugation at 21,000 g for 15 min and then incubated with GFP-trap beads (item No.: gta-20; Chromotek, Hauppauge, NY, USA) at 4°C for 2 h. The GFP-trap beads were pelleted by centrifugation at 500 g for 2 min and washed with lysis buffer at least four times. Proteins were eluted by boiling the beads in a protein loading buffer for 10 min and detected by immunoblot analysis with anti-GFP (Cat No. M20004; Abmart, Shanghai, China) or anti-HA (Cat No. M20013; Abmart, Shanghai, China).
# GmNFR5a homodimer = test: Co-immunoprecipitation of GFP-tagged GmNFR5a with HA-tagged GmNFR5a in N. benthamiana; format: cell-based, soybean (Glycine max); conditions: Co-IP; N. benthamiana leaves treated 50 mg/L for 5 min
# Protocol: as §1
# [1] = tested on: GmNFR5a-GmCERK1 interaction; test: Co-immunoprecipitation of GmNFR5a-GFP with GmCERK1-HA in N. benthamiana; format: cell-based, soybean (Glycine max); conditions: Co-IP; N. benthamiana leaves treated 50 mg/L for 5 min
# Protocol: as §1
# [2] = tested on: GmCERK1-GmCAK1 interaction; test: Co-immunoprecipitation of GmCERK1-GFP with GmCAK1-HA in N. benthamiana; format: cell-based, soybean (Glycine max); conditions: Co-IP; N. benthamiana leaves treated 50 mg/L for 5 min
# Protocol: as §1
# GmNFR5a^ECD, sequence (A5YJV9 entry or part of it): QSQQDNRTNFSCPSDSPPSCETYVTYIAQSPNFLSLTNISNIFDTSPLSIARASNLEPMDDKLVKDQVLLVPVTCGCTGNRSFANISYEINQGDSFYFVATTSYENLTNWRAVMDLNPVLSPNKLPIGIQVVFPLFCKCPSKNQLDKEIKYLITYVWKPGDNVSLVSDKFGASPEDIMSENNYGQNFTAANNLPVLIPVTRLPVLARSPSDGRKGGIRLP
Structure (SMILES),Kd (AtCERK1^ECD) [mM],Kd (GmNFR5a^ECD) [mM],binding to UGT76G1 (UGT76G1),GmCERK1-GFP / GmCERK1-HA interaction (homodimer) (GmCERK1 homodimer),GmNFR5a homodimer formation (GmNFR5a homodimer),GmNFR5a interaction with GmCERK1 [1],interaction between GmCERK1 and GmCAK1 [2]
"N[C@H]1[C@H](O[C@H]2[C@H](O)[C@@H](N)[C@H](O[C@H]3[C@H](O)[C@@H](N)[C@H](O[C@H]4[C@H](O)[C@@H](N)[C@H](O[C@H]5[C@H](O)[C@@H](N)[C@H](O[C@H]6[C@H](O)[C@@H](N)C(O)O[C@@H]6CO)O[C@@H]5CO)O[C@@H]4CO)O[C@@H]3CO)O[C@@H]2CO)O[C@H](CO)[C@@H](O)[C@@H]1O (some centres unmarked) [CSOS (dp6), chitosan oligosaccharide]",2.73 ± 0.43,7.04 ± 2.62,cannot bind,strong interaction,strong homodimer,interacted strongly,diminished
"CC(=O)N[C@H]1[C@H](O[C@H]2[C@H](O)[C@@H](NC(C)=O)[C@H](O[C@H]3[C@H](O)[C@@H](NC(C)=O)C(O)O[C@@H]3CO)O[C@@H]2CO)O[C@H](CO)[C@@H](O[C@@H]2O[C@H](CO)[C@@H](O[C@@H]3O[C@H](CO)[C@@H](O[C@@H]4O[C@H](CO)[C@@H](O)[C@H](O)[C@H]4NC(C)=O)[C@H](O)[C@H]3NC(C)=O)[C@H](O)[C@H]2NC(C)=O)[C@@H]1O (some centres unmarked) [CTOS (dp6), chitin oligosaccharide]",0.66 ± 0.27,20.5 ± 6.07,cannot bind,strong interaction,strong homodimer,interacted strongly,diminished
